Where two headings read alike, the source gives them in different places.
Legend:
Assay in all cases: NCI 60 cell line screen, sulforhodamine B, 48 h
Type in all cases: cell-based, human
[1] = test system: A498
Protocol: (§1) A detailed description of the screening procedure can be found at hypertext transfer protocol (http://) “dtp.nci.nih.gov/branches/btb/ivclsp.html.”
(§2) In brief, each of the 60 human tumor cell lines were grown in RPMI 1640 medium, supplemented with 5% fetal bovine serum and 2 mM L-glutamine. Cells were plated at their appropriate density in 96-well microtiter plates and incubated at 37° C., 5% CO2, 95% air and 100% relative humidity. […] Cells were incubated for an additional 48 hours and a sulforhodamine B protein assay was used to estimate cell viability or growth.

[2] = test system: A549/ATCC; settings: Non-Small Cell Lung Cancer
Protocol: as §1, §2

[3] = test system: ACHN; settings: Renal Cancer
Protocol: as §1, §2

[4] = test system: BT-459
Protocol: as §1, §2

[5] = test system: CCRF-CEM; settings: Leukemia
Protocol: as §1, §2

[6] = test system: DU-145
Protocol: as §1, §2

[7] = test system: HCC-2998
Protocol: as §1, §2

[8] = test system: HCI-H23; settings: HCI-H23, Non-Small Cell Lung Cancer
Protocol: as §1, §2

[9] = test system: HCT-116; settings: HCT-116, Colon Cancer
Protocol: as §1, §2

[10] = test system: HCT-15
Protocol: as §1, §2

[11] = test system: HDP-92
Protocol: as §1, §2

[12] = test system: HT29
Protocol: as §1, §2

[13] = test system: K-562; settings: K-562, Leukemia
Protocol: as §1, §2

[14] = test system: KM12; settings: KM12, Colon Cancer
Protocol: as §1, §2

[15] = test system: MCF7; settings: MCF7, Breast Cancer
Protocol: as §1, §2

[16] = test system: NCI-H322M; settings: Non-Small Cell Lung Cancer
Protocol: as §1, §2

[17] = test system: NCI-H460; settings: NCI-H460, Non-Small Cell Lung Cancer
Protocol: as §1, §2

[18] = test system: NCI-H522; settings: NCI-H522, Non-Small Cell Lung Cancer
Protocol: as §1, §2

[19] = test system: NCVADR-RES
Protocol: as §1, §2

[20] = test system: OVCAR-4; settings: OVCAR-4, Ovarian Cancer
Protocol: as §1, §2

[21] = test system: OVCAR-5; settings: OVCAR-5, Ovarian Cancer
Protocol: as §1, §2

[22] = test system: SF-268; settings: SF-268, CNS Cancer
Protocol: as §1, §2

[23] = test system: SF-539; settings: SF-539, CNS Cancer
Protocol: as §1, §2

[24] = test system: SK-MEL-21; settings: for CC50: Homo sapiens
Protocol: as §1, §2

[25] = test system: SK-OV-3; settings: SK-OV-3, Ovarian Cancer
Protocol: as §1, §2

[26] = test system: SNB-19
Protocol: as §1, §2

[27] = test system: SNB-75; settings: SNB-75, CNS Cancer
Protocol: as §1, §2

[28] = test system: SR; settings: Leukemia
Protocol: as §1, §2

[29] = test system: TK-10; settings: TK-10, Renal Cancer
Protocol: as §1, §2

[30] = test system: U251; settings: U251, CNS Cancer
Protocol: as §1, §2

[31] = test system: tGROV1; settings: tGROV1, Ovarian Cancer
Protocol: as §1, §2

[32] = Homo sapiens, 60 cell, read-out: Log10 LC50 (converted)
[33] = HDP-92, Non-Small Cell Lung Cancer

Compound: C[C@@]12OC(=O)[C@]1([C@@H](O)[C@@H]1C=CCCC1)NC(=O)[C@@H]2CCCl [Formula II-16, Salinosporamide A]
- Log10 G150 ([1]; A498, Renal Cancer): <-8.00 Molar
- Log10 TGI ([1]; A498, Renal Cancer): <-8.00 Molar
- CC50 ([1]; Homo sapiens, A498, read-out: Log10 LC50 (converted)): 0.0115 µM
- Log10 G150 [2]: <-8.00 Molar
- Log10 TGI [2]: -4.70 Molar
- Log10 G150 [3]: <-8.00 Molar
- Log10 TGI [3]: -5.27 Molar
- Log10 G150 ([4]; BT-459, Breast Cancer): <-8.00 Molar
- Log10 TGI ([4]; BT-459, Breast Cancer): <-8.00 Molar
- CC50 [4, 32]: 0.0603 µM
- Log10 G150 [5]: <-8.00 Molar
- Log10 TGI [5]: <-8.00 Molar
- Log10 G150 ([6]; DU-145, Prostate Cancer): <-8.00 Molar
- Log10 TGI ([6]; DU-145, Prostate Cancer): >-4.00 Molar
- CC50 ([6]; Homo sapiens, DU-145, read-out: Log10 LC50 (converted)): > 100 µM
- Log10 G150 ([7]; HCC-2998, Colon Cancer): <-8.00 Molar
- Log10 TGI ([7]; HCC-2998, Colon Cancer): <-8.00 Molar
- CC50 ([7]; Homo sapiens, HCC 2998, read-out: Log10 LC50 (converted)): 0.0178 µM
- Log10 G150 [8]: <-8.00 Molar
- Log10 TGI [8]: -7.85 Molar
- Log10 G150 [9]: <-8.00 Molar
- Log10 TGI [9]: -7.14 Molar
- Log10 G150 ([10]; HCT-15, Colon Cancer): <-8.00 Molar
- Log10 TGI ([10]; HCT-15, Colon Cancer): -6.06 Molar
- CC50 ([10]; Homo sapiens, HCT-15, read-out: Log10 LC50 (converted)): 56.2 µM
- Log10 G150 [11, 33]: <-8.00 Molar
- Log10 TGI [11, 33]: -7.77 Molar
- CC50 [11, 32]: 4.37 µM
- Log10 G150 ([12]; HT29, Colon Cancer): <-8.00 Molar
- Log10 TGI ([12]; HT29, Colon Cancer): -7.37 Molar
- CC50 ([12]; Homo sapiens, HT-29, read-out: Log10 LC50 (converted)): 38 µM
- Log10 G150 [13]: <-8.00 Molar
- Log10 TGI [13]: -5.59 Molar
- Log10 G150 [14]: <-8.00 Molar
- Log10 TGI [14]: -6.00 Molar
- Log10 G150 [15]: <-8.00 Molar
- Log10 TGI [15]: >-4.00 Molar
- Log10 G150 [16]: <-8.00 Molar
- Log10 TGI [16]: -5.48 Molar
- Log10 G150 [17]: <-8.00 Molar
- Log10 TGI [17]: -6.97 Molar
- Log10 G150 [18]: <-8.00 Molar
- Log10 TGI [18]: <-8.00 Molar
- CC50 [19, 32]: 0.178 µM
- Log10 G150 ([19]; NCVADR-RES, Breast Cancer): <-8.00 Molar
- Log10 TGI ([19]; NCVADR-RES, Breast Cancer): <-8.00 Molar
- Log10 G150 [20]: <-8.00 Molar
- Log10 TGI [20]: <-8.00 Molar
- Log10 G150 [21]: <-8.00 Molar
- Log10 TGI [21]: -7.28 Molar
- Log10 G150 [22]: <-8.00 Molar
- Log10 TGI [22]: -6.92 Molar
- Log10 G150 [23]: <-8.00 Molar
- Log10 TGI [23]: <-8.00 Molar
- CC50 ([24]; 60 cell, read-out: Log10 LC50 (converted)): < 0.01 µM
- CC50 ([24]; SK-MEL-28, read-out: LC50): < 0.01 µM
- Log10 G150 ([24]; SK-MEL-21, Melanoma): <-8.00 Molar
- Log10 TGI ([24]; SK-MEL-21, Melanoma): <-8.00 Molar
- Log10 G150 [25]: <-8.00 Molar
- Log10 TGI [25]: <-8.00 Molar
- CC50 ([26]; Homo sapiens, SNB-19, read-out: Log10 LC50 (converted)): > 100 µM
- Log10 G150 ([26]; SNB-19, CNS Cancer): <-8.00 Molar
- Log10 TGI ([26]; SNB-19, CNS Cancer): >-4.00 Molar
- Log10 G150 [27]: <-8.00 Molar
- Log10 TGI [27]: <-8.00 Molar
- Log10 G150 [28]: <-8.00 Molar
- Log10 TGI [28]: <-8.00 Molar
- Log10 G150 [29]: <-8.00 Molar
- Log10 TGI [29]: -7.13 Molar
- Log10 G150 [30]: <-8.00 Molar
- Log10 TGI [30]: -5.99 Molar
- Log10 G150 [31]: <-8.00 Molar
- Log10 TGI [31]: -5.18 Molar

Reference: patent US7572606B1 (Nereus Pharmaceuticals, Inc., priority 2005, dated 2009)
